From patent US20030228607A1, “Screening method and modulators having an improved therapeutic profile” (priority 2002, published 2003)

Legend:
LXRα and LXRβ = biological target: T1, LXRα and LXRβ (Homo sapiens, UniProt P55055+Q13133); assay: High throughput FRET co-activator (SRC-1) recruitment assay, multiplexed; assay type: biochemical; details: 10 uM, positive control; negative control DMSO around 0
T1 construct: made in house
T1 sequence (Q13133 188-447 limits assumed): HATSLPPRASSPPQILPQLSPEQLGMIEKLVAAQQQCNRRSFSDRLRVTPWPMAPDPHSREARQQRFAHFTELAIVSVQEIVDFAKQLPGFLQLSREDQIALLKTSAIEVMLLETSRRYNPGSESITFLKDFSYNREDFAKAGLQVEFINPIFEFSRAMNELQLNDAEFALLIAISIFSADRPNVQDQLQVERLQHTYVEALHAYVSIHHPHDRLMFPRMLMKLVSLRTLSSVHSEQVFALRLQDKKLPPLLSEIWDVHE
T1 sequence (P55055 197-460 limits assumed): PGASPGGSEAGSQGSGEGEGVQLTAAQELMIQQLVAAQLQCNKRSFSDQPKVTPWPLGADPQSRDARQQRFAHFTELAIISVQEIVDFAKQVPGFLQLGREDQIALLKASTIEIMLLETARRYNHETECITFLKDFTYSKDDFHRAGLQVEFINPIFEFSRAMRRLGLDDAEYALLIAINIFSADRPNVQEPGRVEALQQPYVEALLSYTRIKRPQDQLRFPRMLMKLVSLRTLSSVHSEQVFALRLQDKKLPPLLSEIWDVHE
T1 sequence (Q15788 676-700 partner limits assumed): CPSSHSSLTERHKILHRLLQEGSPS
Procedure: FIG. 9. is a scatter plot of a co-activator recruitment assay showing fluorescence emitted from APC at 665 nm in a FRET based (biochemical) co-factor recruitment assay that detects the binding of the SCR-1 co-activator to […]. In this assay, recruitment of SCR-1 to both LXRα and LXRβ were simultaneously assayed.
High through FRET cofactor interaction assays were performed in 96 or 384 well assay well plates using automated liquid handling and analysis. Screens for LXR were performed using the protocol below. Equivalent screens for FXR were performed using the FXR (SEQ.ID. No. 4) ligand binding domain in place of LXRα and LXRβ LBD and at a concentration of 8 nM per well.
1. Partially purified recombinant protein comprising glutathione-S-transferase fused in frame to the LXR-ligand binding domain (comprising amino acids 188-447 of human LXRα (SEQ. ID. No. 6), or amino acids 198-461 of human LXRβ (SEQ. ID. No. 7)).
2. Biotinylated peptide containing a SRC-1 receptor interaction motif(B-SRC-1) (SEQ. ID. No. 46).
3. […]
d) Plates were read using an LJL Analyst, or similar instrument, using the following conditions: Channel 1: The excitation wavelength was set to 330 nm, emitted light was collected at 615 nm, with 100 flashes per well, an integration time of 1000 μs; a 10 msec interval between flashes, and a delay after flashes of 200 μs. […]

ABCA1 [1] = assay: ABCA1 mRNA (RT-PCR) and protein (western blot) in peritoneal macrophage; assay type: cell-based, mouse; details: 1 μM, 18 hrs
From the text: FIG. 2. LXR dependent activation and repression of ABCA1. Thyoglycolate induced peritoneal macrophage were isolated from wild type and LXRαβ knockout mice. […] FIG. 2A. Following induction mRNA was isolated and RT-PCR was used to quantitate the levels of ABCA1 and the cyclophilin. ABCA1 levels were normalized to cyclophilin levels and the results are presented as fold induction above wild type macrophage treated with vehicle. FIG. 2B. For western blot analysis, whole cells extracts were isolated, run on an SDS-PAGE and probed with an antibody specific for ABCA1. RNA isolation and analysis of gene expression by quantitative RT-PCR. Total RNA from mouse tissues and cells was isolated using RNeasy kits (QIAGEN Inc.) according to the supplier's total RNA isolation procedure. Real time PCR was performed using a Perkin-Elmer/ABI 7700 Prism. […] Quantitative PCR of reverse transcriptase reactions was carried out with 1.25 units Taq polymerase (Life Technologies), 1× Taq buffer, 3 mM MgCl2, 200 uM dNTPs, 400 nM target specific forward and reverse primers and 100 nM target specific fluorogenic probe. […] Levels of cyclophilin were measured in all in vivo samples and the results are presented as number of target transcripts per cyclophilin transcript. […] RT-PCR was used to quantitate the levels of ABCA1 and the cyclophilin following induction of mRNA. […]

ABCA1 [2] = assay: ABCA1 mRNA in tissues of mice dosed by oral gavage; assay type: in vivo, mouse; details: 10 mg/kg daily for 7 days, intestinal mucosa, liver, quadriceps, LXR dependent
Procedure: (§1) FIG. 5. LXR mediated repression of ABCA1 is tissue specific. To measure the LXR dependent regulation of ABCA1 in different tissues wild type and LXRαβ−/− mice were dosed with 10 mg/kg T0901317 for 7 days by oral gavage. After 7 days the animals were sacrificed and intestinal mucosa, quadriceps, and livers were harvested. Mouse embryonic fibroblasts (MEFs) were isolated from embryos harvested at embryonic day 14. MEFs were plated in DMEM+10% FBS and treated with either vehicle or 1 μM T0901317 for 18 hrs. RNA was isolated and RT-PCR was used to quantitate the levels of ABCA1 and cyclophilin in FIG. 5A, intestinal mucosa, FIG. 5B, liver, FIG. 5C, MEFs and FIG. 5D, quadricep. […] RNA isolation and analysis of gene expression by quantitative RT-PCR. […] Quantitative PCR of reverse transcriptase reactions was carried out with 1.25 units Taq polymerase (Life Technologies), 1× Taq buffer, 3 mM MgCl2, 200 uM dNTPs, 400 nM target specific forward and reverse primers and 100 nM target specific fluorogenic probe. […] Levels of cyclophilin were measured in all in vivo samples and the results are presented as number of target transcripts per cyclophilin transcript. […] ABCA1 levels were also measured in isolated mouse embryonic fibroblasts treated with T091317 in culture. LXR agonist treatment increases expression of ABCA1 mRNA in all of the tissues analyzed, in an LXR dependent manner. […]

ABCA1 [3] = assay: ABCA1 mRNA in mouse embryonic fibroblasts in culture; assay type: cell-based; details: MEFs in culture, 1 μM, 18 hrs; LXR dependent
Procedure: as §1

[4] = biological target: T2, human LXRα ligand binding domain with co-repressors NCoR and SMRT (Homo sapiens, UniProt Q13133); assay: GAL4 two-hybrid co-repressor interaction in CV-1 cells, LXRα; assay type: cell-based; details: 1 μM overnight, luciferase normalized to β-gal
T2 construct: expressed in transfected cells; host or cells: CV-1 cells
T2 sequence (Q13133 164-447): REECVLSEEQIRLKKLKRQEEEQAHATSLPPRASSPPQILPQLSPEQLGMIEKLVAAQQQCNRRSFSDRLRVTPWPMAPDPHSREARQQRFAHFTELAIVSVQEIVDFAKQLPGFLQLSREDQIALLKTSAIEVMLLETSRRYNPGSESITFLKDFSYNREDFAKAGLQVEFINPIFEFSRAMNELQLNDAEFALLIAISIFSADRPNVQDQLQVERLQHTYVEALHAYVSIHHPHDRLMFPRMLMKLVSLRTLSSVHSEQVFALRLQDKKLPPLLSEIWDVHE
Procedure: (§2) FIG. 6. […] Two-hybrid analysis was performed by transiently transfecting CV-1 cells with a Gal4-luciferase reporter, Gal4-fusions of the receptor interacting domains of NcoR and SMRT, VP16 fusion of the ligand binding domains of LXRα and LXRβ and a β-gal expression vector. Cells were transfected with FUGENE transfection reagent and incubated with vehicle or 1 μM T0901317 overnight. The cells were then lysed and analyzed for β-gal and luciferase activity. The data is presented as luciferase activity normalized to β-gal activity.
(§3) GAL4 two-hybrid experiments. CV-1 cells were transfected using FuGene6 (Roche Applied Science, Indianapolis, Ind.) per manufacturer's instructions in 96 well plates with a total of 65 ng of DNA per well, consisting of 20 ng β-gal reporter, 15 ng GAL4-UAS4xRE (SEQ. ID. No. 28), 15 ng VP16-LXR-LBD, and 15 ng GAL4-human silencing mediator of retinoid and thyroid transcription (SMRT) receptor interacting domain 1 and 2 (ID1+ID2) or human nuclear receptor corepressor 1 (NCoR) ID1+ID2.

[5] = biological target: T3, human LXRβ ligand binding domain with co-repressors NCoR and SMRT (Homo sapiens, UniProt P55055, DUP175-175); assay: GAL4 two-hybrid co-repressor interaction in CV-1 cells, LXRβ; assay type: cell-based; details: 1 μM overnight, luciferase normalized to β-gal
T3 construct: expressed in transfected cells; host or cells: CV-1 cells
T3 sequence (P55055 with tags, fused parts or gaps DUP175-175): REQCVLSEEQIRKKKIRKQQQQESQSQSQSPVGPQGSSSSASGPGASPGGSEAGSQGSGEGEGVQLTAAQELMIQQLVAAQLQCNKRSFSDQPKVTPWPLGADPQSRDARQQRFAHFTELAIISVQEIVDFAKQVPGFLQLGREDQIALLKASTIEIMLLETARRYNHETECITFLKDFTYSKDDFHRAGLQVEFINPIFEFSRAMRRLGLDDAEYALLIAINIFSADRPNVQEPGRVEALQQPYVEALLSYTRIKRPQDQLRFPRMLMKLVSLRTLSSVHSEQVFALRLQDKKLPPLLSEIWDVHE
Procedure: as §2, §3

| Compound | fluorescence emitted from APC at 665 nm (SRC-1 recruitment, Spotfire scale) (LXRα and LXRβ) | ABCA1 mRNA levels (ABCA1 [1]; RT-PCR normalized to cyclophilin, LXR dependent (wild type vs LXRαβ-/-)) | ABCA1 protein levels (ABCA1 [1]; western blot, LXR dependent) | expression of ABCA1 mRNA in tissues (ABCA1 [2]) | expression of ABCA1 mRNA in mouse embryonic fibroblasts (ABCA1 [3]) | interaction of LXRα with co-repressors NCoR and SMRT [4] | interaction of LXRβ with co-repressors NCoR and SMRT [5] |
| --- | --- | --- | --- | --- | --- | --- | --- |
| CC(C)CC[C@@H](O)[C@@H](C)[C@H]1CC[C@H]2[C@@H]3CC=C4C[C@@H](O)CC[C@]4(C)[C@H]3CC[C@]12C [22-R-Hydroxy-Cholesterol] | around 100 |  |  |  |  |  |  |
| O=S(=O)(c1ccccc1)N(CC(F)(F)F)c1ccc(C(O)(C(F)(F)F)C(F)(F)F)cc1 [T0901317, N-(2,2,2,-trifluoro-ethyl)-N-[4-(2,2,2-trifluoro-1-hydroxy-1-trifluoromethyl-ethyl)-phenyl]-benzenesulfonamide] |  | increases | increases | increases | increases | inhibited | inhibited |
